Measured values: US8598356B2, “Heteroaryl-substituted urea modulators of fatty acid amide hydrolase” (Janssen Pharmaceutica NV, priority 2008, dated 2013)

Assays:
Human FAAH = target: T1, Human FAAH (Homo sapiens, UniProt O00519); assay: Assay Method 1: FAAH assay, hydrolysis of 3H-anandamide by cell homogenate; format: biochemical; settings: T84 or transfected SK-N-MC cell homogenate, 3H-AEA 80 nM, rt 1 h, average of results obtained
T1 construct: expressed in transfected cells; alternatively T84 frozen cell pellets
T1 sequence (O00519 1-579): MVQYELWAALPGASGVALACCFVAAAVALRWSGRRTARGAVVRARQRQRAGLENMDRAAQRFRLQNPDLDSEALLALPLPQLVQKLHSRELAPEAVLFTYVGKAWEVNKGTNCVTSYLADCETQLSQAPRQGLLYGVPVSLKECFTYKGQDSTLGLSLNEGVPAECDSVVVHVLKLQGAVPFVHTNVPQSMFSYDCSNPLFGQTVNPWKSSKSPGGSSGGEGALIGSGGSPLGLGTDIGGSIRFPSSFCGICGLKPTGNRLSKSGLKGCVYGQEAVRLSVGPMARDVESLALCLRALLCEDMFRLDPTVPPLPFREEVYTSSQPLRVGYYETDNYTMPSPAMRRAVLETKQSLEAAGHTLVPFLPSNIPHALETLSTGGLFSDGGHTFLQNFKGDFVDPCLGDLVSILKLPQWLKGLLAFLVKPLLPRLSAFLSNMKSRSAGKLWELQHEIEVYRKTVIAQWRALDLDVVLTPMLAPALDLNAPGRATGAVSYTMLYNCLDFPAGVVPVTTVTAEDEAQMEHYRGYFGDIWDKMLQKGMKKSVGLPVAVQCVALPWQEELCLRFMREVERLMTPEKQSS
Procedure: A. Transfection of Cells with Human FAAH
(§1) A 10-cm tissue culture dish with a confluent monolayer of SK-N-MC cells was split 2 days (d) prior to transfection. Using sterile technique, the media was removed and the cells were detached from the dish by the addition of trypsin. One fifth of the cells were then placed onto a new 10-cm dish. Cells were grown in a 37° C. incubator with 5% CO2 in Minimal Essential Media Eagle with 10% Fetal Bovine Serum. After 2 d, cells were approximately 80% confluent. These cells were removed from the dish with trypsin and pelleted in a clinical centrifuge. The pellet was re-suspended in 400 μL complete media and transferred to an electroporation cuvette with a 0.4 cm gap between the electrodes. Supercoiled human FAAH cDNA (1 μg) was added to the cells and mixed. The voltage for the electroporation was set at 0.25 kV, and the capacitance was set at 960 μF. After electroporation, the cells were diluted into complete media (10 mL) and plated onto four 10-cm dishes. Because of the variability in the efficiency of electroporation, four different concentrations of cells were plated. The ratios used were 1:20, 1:10, and 1:5, with the remainder of the cells being added to the fourth dish. The cells were allowed to recover for 24 h before adding the selection media (complete media with 600 μg/mL G418). After 10 d, dishes were analyzed for surviving colonies of cells. Dishes with well-isolated colonies were used. Cells from individual colonies were isolated and tested.
(§2) T84 frozen cell pellets or transfected SK-N-MC cells (contents of 1×15 cm culture dishes) were homogenized in 50 mL of FAAH assay buffer (125 mM Tris, 1 mM EDTA, 0.2% Glycerol, 0.02% Triton X-100, 0.4 mM Hepes, pH 9). The assay mixture consisted of 50 μL of the cell homogenate, 10 μL of the test compound, and 40 μL of anandamide [1-^3H-ethanolamine] (^3H-AEA, Perkin-Elmer, 10.3 Ci/mmol), which was added last, for a final tracer concentration of 80 nM. The reaction mixture was incubated at rt for 1 h. During the incubation, 96-well Multiscreen filter plates (catalog number MAFCNOB50; Millipore, Bedford, Mass., USA) were loaded with 25 μL of activated charcoal (Multiscreen column loader, catalog number MACL09625, Millipore) and washed once with 100 μL of MeOH. Also during the incubation, 96-well DYNEX MicroLite plates (catalog number NL510410) were loaded with 100 μL of MicroScint40 (catalog number 6013641, Packard Bioscience, Meriden, Conn., USA). After the 1 h incubation, 60 μL of the reaction mixture were transferred to the charcoal plates, which were then assembled on top of the DYNEX plates using
Centrifuge Alignment Frames (catalog number MACF09604, Millipore). The unbound labeled ethanolamine was centrifuged through to the bottom plate (5 min at 2000 rpm), which was preloaded with the scintillant, as described above. The plates were sealed and left at rt for 1 h before counting on a Hewlett Packard TopCount.
(§3) Results for compounds tested in these assays are summarized in Table 1, as an average of results obtained. Compounds were tested in free base, hydrochloride salt, and/or trifluoroacetic acid salt forms. Where activity is shown as greater than (>) a particular value, the value is the solubility limit of the compound in the assay medium or the highest concentration tested in the assay.

Rat FAAH = target: T2, Rat FAAH (Rattus norvegicus, UniProt P97612); assay: Assay Method 2: FAAH assay, hydrolysis of 3H-anandamide by cell homogenate; format: biochemical; settings: T84 or transfected SK-N-MC cell homogenate, 3H-AEA 80 nM, rt 1 h, average of results obtained
T2 construct: expressed in transfected cells
T2 sequence (P97612 1-579): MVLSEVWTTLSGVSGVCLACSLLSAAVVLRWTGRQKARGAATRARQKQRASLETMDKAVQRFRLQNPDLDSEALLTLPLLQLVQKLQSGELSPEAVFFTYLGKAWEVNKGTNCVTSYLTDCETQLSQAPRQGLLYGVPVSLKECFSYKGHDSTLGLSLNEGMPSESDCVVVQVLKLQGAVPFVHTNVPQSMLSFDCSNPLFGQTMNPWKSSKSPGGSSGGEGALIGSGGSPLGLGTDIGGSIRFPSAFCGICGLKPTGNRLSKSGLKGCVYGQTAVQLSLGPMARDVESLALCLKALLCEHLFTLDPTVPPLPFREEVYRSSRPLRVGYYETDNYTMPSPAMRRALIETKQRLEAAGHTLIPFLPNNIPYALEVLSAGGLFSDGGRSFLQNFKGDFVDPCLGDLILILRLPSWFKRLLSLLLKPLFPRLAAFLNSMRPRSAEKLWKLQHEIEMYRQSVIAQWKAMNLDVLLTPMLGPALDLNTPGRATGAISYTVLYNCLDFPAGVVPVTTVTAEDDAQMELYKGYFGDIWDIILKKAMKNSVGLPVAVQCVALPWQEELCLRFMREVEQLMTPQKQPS
Procedure: A. Transfection of Cells with Rat FAAH
as §1, with “rat” for “human”, “[…]” for “960 μF.”
as §2, with “25” for “25 μL”, “using Centrifuge Alignment Frames (catalog number MACF09604, Millipore). The unbound labeled ethanolamine was centrifuged through to the bottom plate (5 min at 2000 rpm), which was preloaded with the scintillant, as described above. The plates were sealed and left at rt for 1 h before counting on a Hewlett Packard TopCount.” for “using”
as §3

Row | SMILES | IC50 (Human FAAH) | IC50 (Rat FAAH)
1 | O=C(Nc1cccnc1)N1CCCC(Cc2cccc(Oc3ccc(Cl)cc3)c2)C1 (single isomer, unassigned; (+)) [Example 13, (+)-3-[3-(4-Chloro-phenoxy)-benzyl]-piperidine-1-carboxylic acid pyridin-3-ylamide] | 0.019 µM | 0.031 µM
2 | O=C(Nc1cccnc1)N1CCCC(Cc2cccc(Oc3ccc(Cl)cc3)c2)C1 (single isomer, unassigned; (-)) [Example 14, (−)-3-[3-(4-Chloro-phenoxy)-benzyl]-piperidine-1-carboxylic acid pyridin-3-ylamide] | 0.073 µM | 0.027 µM
3 | O=C(Nc1cccnc1)N1CCCC(Cc2ccc3c(c2)OC(F)(F)O3)C1 (stereo not drawn) [Example 1, 3-(2,2-Difluoro-benzo[1,3]dioxol-5-ylmethyl)-piperidine-1-carboxylic acid pyridin-3-ylamide] | 0.41 µM | 0.604 µM
4 | O=C(Nc1ccncn1)N1CCCC(Cc2ccc(C(F)(F)F)cc2)C1 (stereo not drawn) [Example 2, N-Pyrimidin-4-yl-3-{[4-(trifluoromethyl)phenyl]methyl}piperidine-1-carboxamide] | 8 µM | > 10 µM
5 | O=C(Nc1ccncn1)N1CCCC(Cc2ccc(F)cc2)C1 (stereo not drawn) [Example 4, 3-[4(4-Fluorophenyl)methyl]-N-pyrimidin-4-ylpiperidine-1-carboxamide] | 10 µM | > 10 µM
6 | O=C(Nc1cccnc1)N1CCCC(Cc2cccc(Oc3ccc(F)cc3)c2)C1 (stereo not drawn) [Example 10, 3-[3-(4-Fluorophenoxy)benzyl]-N-pyridin-3-ylpiperidine-1-carboxamide] | 0.018 µM | 0.019 µM
7 | O=C(Nc1cnccc1Cl)N1CCCC(Cc2cccc(Oc3ccc(F)cc3)c2)C1 (stereo not drawn) [Example 11, 3-[3-(4-Fluoro-phenoxy)-benzyl]-piperidine-1-carboxylic acid (4-chloro-pyridin-3-yl)-amide] | 0.087 µM | 0.008 µM
8 | O=C(Nc1cnc2cccnn12)N1CCCC(Cc2cccc(Oc3ccc(F)cc3)c2)C1 (stereo not drawn) [Example 12, 3-[3-(4-Fluoro-phenoxy)-benzyl]-piperidine-1-carboxylic acid imidazo[1,2-b]pyridazin-3-ylamide] | 0.056 µM | 0.007 µM
9 | O=C(Nc1cccnc1)N1CCCC(Cc2cccc(Oc3ccc(OC(F)(F)F)cc3)c2)C1 (stereo not drawn) [Example 15, 3-[3-(4-Trifluoromethoxy-phenoxy)-benzyl]-piperidine-1-carboxylic acid pyridine-3-ylamide] | 0.011 µM | 0.017 µM

The next lines start with the values.

Row | IC50 (Human FAAH) | IC50 (Rat FAAH) | SMILES
10 | 8 µM | 10 µM | O=C(Nc1ccncn1)N1CCCC(Cc2cccc(C(F)(F)F)c2)C1 (stereo not drawn) [Example 3, N-Pyrimidin-4-yl-3-{[3-(trifluoromethyl)phenyl]methyl}piperidine-1-carboxamide]
11 | 2 µM | 0.183 µM | O=C(Nc1noc2ccccc12)N1CCCC(Cc2ccc(C(F)(F)F)cc2)C1 (stereo not drawn) [Example 5, N-1,2-Benzisoxazol-3-yl-3-{[4-(trifluoromethyl)-phenyl]-methyl}-piperidine-1-carboxamide]
12 | 0.645 µM | 0.05 µM | O=C(Nc1noc2ccccc12)N1CCCC(Cc2cccc(C(F)(F)F)c2)C1 (stereo not drawn) [Example 6, N-1,2-Benzisoxazol-3-yl-3-{[3-(trifluoromethyl)-phenyl]-methyl}-piperidine-1-carboxamide]
13 | 2 µM | 0.152 µM | O=C(Nc1noc2ccccc12)N1CCCC(Cc2ccc(F)cc2)C1 (stereo not drawn) [Example 7, N-1,2-Benzisoxazol-3-yl-3-[(4-fluorophenyl)methyl]piperidine-1-carboxamide]
14 | 10 µM | > 10 µM | O=C(Nc1ccon1)N1CCCC(Cc2ccc(C(F)(F)F)cc2)C1 (stereo not drawn) [Example 8, N-Isoxazol-3-yl-3-{[4-(trifluoromethyl)phenyl]methyl}piperidine-1-carboxamide]
15 | 7 µM | 9 µM | O=C(Nc1ccon1)N1CCCC(Cc2cccc(C(F)(F)F)c2)C1 (stereo not drawn) [Example 9, N-Isoxazol-3-yl-3-{[3-(trifluoromethyl)phenyl]methyl}piperidine-1-carboxamide]
